Article PMC337094 (BMC Biochemistry, 2003)

T1: recombinant N-terminal domain of E. coli riboflavin synthase (Escherichia coli, UniProt P0AFU8)
T1 sequence (P0AFU8 1-97): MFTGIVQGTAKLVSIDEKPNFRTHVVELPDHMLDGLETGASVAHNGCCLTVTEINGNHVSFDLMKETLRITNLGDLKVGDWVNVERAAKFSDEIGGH

T2: riboflavin synthase of S. pombe (SSP-Rosy) (Schizosaccharomyces pombe, UniProt Q9Y7P0)
T2 sequence (Q9Y7P0 1-208): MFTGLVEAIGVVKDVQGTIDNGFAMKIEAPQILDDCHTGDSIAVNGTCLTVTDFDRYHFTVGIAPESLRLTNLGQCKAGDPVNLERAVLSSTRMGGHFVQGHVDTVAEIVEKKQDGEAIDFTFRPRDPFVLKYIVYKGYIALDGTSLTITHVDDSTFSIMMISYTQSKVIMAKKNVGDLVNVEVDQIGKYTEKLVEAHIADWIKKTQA

T3: riboflavin synthase of B. subtilis (Bacillus subtilis, UniProt P16440)
T3 sequence (P16440 1-215): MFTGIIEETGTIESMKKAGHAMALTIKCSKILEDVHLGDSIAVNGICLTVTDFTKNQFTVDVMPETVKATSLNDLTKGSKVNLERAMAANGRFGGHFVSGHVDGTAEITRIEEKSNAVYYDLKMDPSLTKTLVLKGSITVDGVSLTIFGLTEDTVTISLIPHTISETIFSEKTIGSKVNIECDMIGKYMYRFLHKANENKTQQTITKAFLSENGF

T4: riboflavin synthase of E. coli (Escherichia coli, UniProt P0AFU8)
T4 sequence (P0AFU8 1-213): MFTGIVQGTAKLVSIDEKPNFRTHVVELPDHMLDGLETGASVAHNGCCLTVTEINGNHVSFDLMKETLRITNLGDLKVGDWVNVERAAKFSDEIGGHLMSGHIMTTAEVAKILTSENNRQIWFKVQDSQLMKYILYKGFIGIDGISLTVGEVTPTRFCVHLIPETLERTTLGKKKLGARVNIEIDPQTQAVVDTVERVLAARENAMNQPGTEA

B1: Riboflavin synthase of Schizosaccharomyces pombe (enzyme, UniProt Q9Y7P0 1-208, looked up)
chain: T2 sequence (Q9Y7P0 1-208)

Key:
[1] = target: T1, recombinant N-terminal domain of E. coli riboflavin synthase; test: […] NMR protein perturbation; assay type: binding; conditions: 20 mM phosphate pH 7.0, 100 mM KCl, 10% D2O, 11 °C
[2] = target: T2, riboflavin synthase of S. pombe (SSP-Rosy); test: […] NMR protein perturbation; assay type: binding; conditions: 20 mM phosphate pH 7.0, 100 mM KCl, 10% D2O, 11 °C
[3] = target: T3, riboflavin synthase of B. subtilis; test: […] NMR protein perturbation; assay type: binding; conditions: 20 mM phosphate pH 7.0, 100 mM KCl, 10% D2O, 11 °C
[4] = target: T4, riboflavin synthase of E. coli; test: […] NMR protein perturbation; assay type: binding; conditions: 20 mM phosphate pH 7.0, 100 mM KCl, 10% D2O, 11 °C
[5] = target: lumazine protein of P. leiognathi (Photobacterium leiognathi, UniProt Q06877); test: […] NMR protein perturbation; assay type: binding; conditions: 20 mM phosphate pH 7.0, 100 mM KCl, 10% D2O, 11 °C
Chain of lumazine protein of P. leiognathi (Q06877 whole entry): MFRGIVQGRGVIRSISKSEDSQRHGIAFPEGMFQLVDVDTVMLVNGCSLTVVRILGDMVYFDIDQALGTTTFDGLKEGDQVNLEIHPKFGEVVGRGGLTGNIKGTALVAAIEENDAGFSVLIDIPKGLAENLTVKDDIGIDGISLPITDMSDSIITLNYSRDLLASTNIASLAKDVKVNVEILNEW

[6] = target: T2, riboflavin synthase of S. pombe (SSP-Rosy); test: […] NMR displacement of compound 6a; assay type: binding; conditions: 20 mM phosphate pH 7.0, 100 mM KCl, 10% D2O, 11 °C; data not shown
[7] = target: the molecule itself; test: AUC

| Molecule | 19F NMR bound-ligand signal [1] | 19F NMR bound-ligand signal [2] | 19F NMR bound-ligand signal [3] | 19F NMR bound-ligand signal [4] | 19F NMR bound-ligand signal [5] | 19F NMR displacement of compound 6a [6] | stoichiometry N [7] |
| --- | --- | --- | --- | --- | --- | --- | --- |
| O=c1[nH]c(=O)c2nc(C(F)(F)F)c(=O)n(C[C@H](O)[C@H](O)[C@H](O)CO)c2[nH]1 [compound 7, 6-trifluoromethyl-7-oxo-8-ribityllumazine] | show single and much narrower lines for the protein bound ligand | in complex with riboflavin synthase of S. pombe shows four signals | B. subtilis (Fig. 5D) show similar signal multiplicities | The riboflavin synthases of E. coli (Fig. 5C) | lumazine protein (Fig. 5A) |  |  |
| O=c1[nH]c2c(c(=O)[nH]1)N=C(C(F)(F)F)[C@@](O)(C(F)(F)F)N2C[C@H](O)[C@H](O)[C@H](O)CO (single isomer, unassigned; epimer a) [6a, 6,7-bis(trifluoromethyl)-8-ribityllumazine hydrate (epimer A)] | show single lines for each trifluoromethyl group of bound Compound 6a | riboflavin synthase of S. pombe binds epimer A | the riboflavin synthases (Figs. 6C,6D,6E) studied show multiple signals | the riboflavin synthases (Figs. 6C,6D,6E) studied show multiple signals | show single lines for each trifluoromethyl group of bound Compound 6a |  |  |
| Cc1cc2nc3c(=O)[nH]c(=O)nc-3n(C[C@H](O)[C@H](O)[C@H](O)CO)c2cc1C [compound 4, riboflavin] |  |  |  |  |  | could be displaced from S. pombe protein by addition of riboflavin |  |
| B1 |  |  |  |  |  |  | 3 |
